# Test results: patent US9610292B2, “Uses for 4,17β-dihydroxyandrost-4-ene-3-one” (MaBel GmbH, priority 2006, dated 2017)
# Legend:
# [1] = system: normal or mastopathic breast tissue; experiment: Double blind clinical test, topical cream, patients with non-malign disease states; format: in vivo, human; details: 4 patients having non-malign disease states, topical administration
# Procedure: (§1) All 10 female patients were topically and locally treated using 4-hydroxytestosterone as active agent, by administering of a cream as described in Example 2 locally to target skin portions of the breasts. After continuing daily topical administration once a day during an administration period of 3 months, clinical investigations on therapeutic effects were performed.
# [2] = system: malign breast carcinoma (C. mammae); experiment: Double blind clinical test, topical cream once a day for 3 months, patients with malign breast carcinoma; format: in vivo, human; details: for Clinical Remission: daily topical cream, 3 months
# Procedure: Double blind clinical tests were conducted with a group of 10 female patients. In this clinical testing, particular attention was paid to hormone receptor statuses of patients' target breast cancer tissue regarding progesterone receptor (PR) and in particular regarding estrogen receptor (ER); The cancers of the patients were assumed to be predominantly androgen receptor (AR) positive. Among this group, six patients had histologically ascertained malign breast carcinoma (C. mammae). […] In a sixth patient, the presence of a malign breast carcinoma was ascertained, but the amount of cancer tissue was too low to determine receptor status.
# as §1
# The results of the 6 patients having malign breast carcinoma are shown in the following Table 1, together with the receptor status determined for patient nos. 1 to 5.
# MCF-7 cells = experiment: Inhibition of MCF-7 cell proliferation (counting of vital cells); format: cell-based, human; details: 10^-7 M, 10^-8 M and 10^-9 M; cell counting after 3, 6 and 9 days; compared with DHT and control
# Procedure: MCF-7 cells were grown in RPMI 1640 medium at 37° C. to a cell number of about 1*10^5 cells/ml. Then, in quadruple identical MCF-7 cell samples, there were added either dihydrotestosterone (DHT) or 4-hydroxytestosterone (4-OHT), to obtain different concentrations thereof, namely 10^−7 M, 10^−8 M or 10^−9 M, and further growth of cells were determined by counting of vital cells. During the course of incubation at 37° C., cell counting were performed after 3, 6 and 9 days. For control, growth of MCF-7 cells were determined without addition of an active agent.
# The results on an inhibition of MCF-7 cell proliferation are shown in FIGS. 1A, 1B and 1C for the compound concentrations of 10^−7 M, 10^−8 M and 10^−9 M of either DHT or 4-OHT, respectively, and compared with the control.
structure (smiles),measurement,setting,value
"C[C@]12CC[C@H]3[C@@H](CCC4=C(O)C(=O)CC[C@@]43C)[C@@H]1CC[C@@H]2O [4-hydroxytestosterone, 4,17β-dihydroxyandrost-4-ene-3-one]",tissue reduction of normal or mastopathic appearing tissues,[1],clear tendency for tissue reduction
same,Clinical Remission,"[2]; Patient # 1, ER 0, PR 0, Her2neu 0",yes
same,Clinical Remission,"[2]; Patient # 3, ER 0, PR 0, Her2neu 0",yes
same,Clinical Remission,"[2]; Patient # 6, receptor status unknown",yes
same,efficacy in shrinking cancerous tissues,"[2]; clinical study overall, including ER negative cancers",excellent efficacy
same,inhibitory effect on MCF-7 cell proliferation,MCF-7 cells,significantly enhanced inhibitory effect
